Experimental data: PubChem BioAssay AID330 (DTP/NCI, 2004)
Several values for one entry are separate records, joined by “and”; a condition that tells them apart may be missing. Identical values can stand only once. Toxic doses and inconclusive results are not listed.

Tested on: P388 leukemia ip, CD2F1 mice, survival T/C
Assay: NCI In Vivo Anticancer Drug Screen. Data for tumor model P388 Leukemia (intraperitoneal) in CD2F1 (CDF1) mice
Settings: endpoint: median survival time, higher = longer survival
In short: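 Mice carrying the transplanted tumor received test compound or vehicle. Survival was recorded in each group, and the value is the treated-group measurement divided by that of the vehicle-treated control group.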

[1] = dose: 100.0 mg/kg/injection, schedule: Q01DX009 (ip), vehicle: saline sonified
[2] = dose: 50.0 mg/kg/injection, schedule: Q01DX009 (ip), vehicle: saline
[3] = dose: 100.0 mg/kg/injection, schedule: Q01DX009 (ip), vehicle: saline
[4] = dose: 200.0 mg/kg/injection, schedule: Q01DX009 (ip), vehicle: saline
[5] = dose: 100.0 mg/kg/injection, schedule: Q01DX001 (ip), vehicle: Klucel (hydroxypropylcellulose) (HPC)

CN(C)c1ccc2c(NCCCCCCNc3ccnc4cc(N(C)C)ccc34)ccnc2c1
T/C (dose: 1.56 mg/kg/injection, schedule: Q01DX009 (ip), vehicle: distilled water + alcohol): 116 % of control | T/C (dose: 6.25 mg/kg/injection, schedule: Q01DX009 (ip), vehicle: distilled water + alcohol): 120 % of control | T/C (dose: 12.5 mg/kg/injection, schedule: Q01DX009 (ip), vehicle: distilled water + alcohol): 150 % of control and 152 % of control | T/C (dose: 25.0 mg/kg/injection, schedule: Q01DX009 (ip), vehicle: distilled water + Tween-80 + alcohol): 174 % of control | T/C (dose: 50.0 mg/kg/injection, schedule: Q01DX009 (ip), vehicle: distilled water + alcohol): 168 % of control

Cc1oc(N)c(C#N)c1C
T/C [1]: 110 % of control | T/C (dose: 200.0 mg/kg/injection, schedule: Q01DX009 (ip), vehicle: saline sonified): 115 % of control | T/C (dose: 400.0 mg/kg/injection, schedule: Q01DX009 (ip), vehicle: saline sonified): 120 % of control

COC(=O)C[C@](O)(CCCC(C)(C)O)C(=O)O[C@@H]1C(OC)=C[C@]23CCCN2CCc2cc4c(cc2[C@H]13)OCO4
T/C (dose: 0.06 mg/kg/injection, schedule: Q01DX005 (iv), vehicle: clinical formulation): 106 % of control | T/C (dose: 0.06 mg/kg/injection, schedule: Q01DX005 (iv), vehicle: saline): 104 % of control | T/C (dose: 0.12 mg/kg/injection, schedule: Q01DX005 (iv), vehicle: clinical formulation): 112 % of control | T/C (dose: 0.12 mg/kg/injection, schedule: Q01DX005 (iv), vehicle: saline): 102 % of control | T/C (dose: 0.12 mg/kg/injection, schedule: Q01DX009 (ip), vehicle: clinical formulation): 155 % of control | T/C (dose: 0.12 mg/kg/injection, schedule: Q01DX009 (ip), vehicle: saline): 152 % of control | T/C (dose: 0.25 mg/kg/injection, schedule: Q01DX005 (iv), vehicle: clinical formulation): 121 % of control | T/C (dose: 0.25 mg/kg/injection, schedule: Q01DX005 (iv), vehicle: saline): 102 % of control | T/C (dose: 0.25 mg/kg/injection, schedule: Q01DX009 (ip), vehicle: clinical formulation): 166 % of control | T/C (dose: 0.25 mg/kg/injection, schedule: Q01DX009 (ip), vehicle: saline): 162 % of control | T/C (dose: 0.5 mg/kg/injection, schedule: Q01DX005 (iv), vehicle: clinical formulation): 160 % of control | T/C (dose: 0.5 mg/kg/injection, schedule: Q01DX009 (ip), vehicle: clinical formulation): 199 % of control | T/C (dose: 0.5 mg/kg/injection, schedule: Q01DX009 (ip), vehicle: saline): 185 % of control | T/C (dose: 0.58 mg/kg/injection, schedule: Q01DX009 (ip), vehicle: acid diluted with saline): 194 % of control | T/C (dose: 0.75 mg/kg/injection, schedule: Q01DX009 (ip), vehicle: acid diluted with saline): 173 % of control and 180 % of control | T/C (dose: 1.0 mg/kg/injection, schedule: Q01DX005 (iv), vehicle: clinical formulation): 194 % of control | T/C (dose: 1.0 mg/kg/injection, schedule: Q01DX005 (iv), vehicle: saline): 168 % of control | T/C (dose: 1.0 mg/kg/injection, schedule: Q01DX009 (ip), vehicle: clinical formulation): 252 % of control | T/C (dose: 1.65 mg/kg/injection, schedule: Q01DX009 (ip), vehicle: acid diluted with saline): 211 % of control and 229 % of control | T/C (dose: 1.75 mg/kg/injection, schedule: Q01DX009 (ip), vehicle: acid diluted with saline): 229 % of control and 234 % of control and 93 % of control | T/C (dose: 1.8 mg/kg/injection, schedule: Q04DX003 (ip), vehicle: saline + alcohol): 159 % of control | T/C (dose: 1.8 mg/kg/injection, schedule: Q04DX003 (ip), vehicle: saline): 152 % of control | T/C (dose: 2.0 mg/kg/injection, schedule: Q01DX005 (iv), vehicle: saline): 203 % of control | T/C (dose: 2.25 mg/kg/injection, schedule: Q01DX009 (ip), vehicle: acid diluted with saline): 223 % of control (2×) and 93 % of control | T/C (dose: 2.5 mg/kg/injection, schedule: Q01DX009 (ip), vehicle: acid diluted with saline): 106 % of control and 95 % of control | T/C (dose: 3.0 mg/kg/injection, schedule: Q01DX009 (ip), vehicle: acid diluted with saline): 66 % of control | T/C (dose: 3.0 mg/kg/injection, schedule: Q04DX003 (ip), vehicle: saline + alcohol): 99 % of control | T/C (dose: 3.33 mg/kg/injection, schedule: Q04DX003 (ip), vehicle: saline): 103 % of control

O=c1[nH]cc(Cn2cnc3ncccc3c2=O)c(=O)[nH]1
T/C (dose: 100.0 mg/kg/injection, schedule: Q01DX001 (ip), vehicle: suspension in saline): 93 % of control | T/C (dose: 200.0 mg/kg/injection, schedule: Q01DX001 (ip), vehicle: suspension in saline): 105 % of control | T/C (dose: 400.0 mg/kg/injection, schedule: Q01DX001 (ip), vehicle: suspension in saline): 112 % of control

CC(=O)C[n+]1cccc(S)c1-c1ccccc1
T/C (dose: 50.0 mg/kg/injection, schedule: Q01DX005 (ip), vehicle: saline with Tween-80): 97 % of control | T/C (dose: 100.0 mg/kg/injection, schedule: Q01DX005 (ip), vehicle: saline with Tween-80): 105 % of control | T/C (dose: 200.0 mg/kg/injection, schedule: Q01DX005 (ip), vehicle: saline with Tween-80): 97 % of control

COCC1=C(C)CC(CC(=O)OC)C1=O (stereo not drawn)
T/C (dose: 60.0 mg/kg/injection, schedule: Q01DX005 (ip), vehicle: saline): 98 % of control | T/C (dose: 120.0 mg/kg/injection, schedule: Q01DX005 (ip), vehicle: saline): 98 % of control | T/C (dose: 240.0 mg/kg/injection, schedule: Q01DX005 (ip), vehicle: saline): 101 % of control

CCCOCC(=O)O
T/C [2]: 106 % of control | T/C [3]: 110 % of control | T/C [4]: 101 % of control

C=CC(=O)NCC(=O)O
T/C [2]: 100 % of control | T/C [3]: 103 % of control | T/C [4]: 109 % of control

OCC1OC(n2cnc3c(=S)nc[nH]c32)C(O)C1O (stereo not drawn)
T/C (dose: 25.0 mg/kg/injection, schedule: Q01DX009 (ip), vehicle: saline sonified): 95 % of control | T/C (dose: 50.0 mg/kg/injection, schedule: Q01DX009 (ip), vehicle: saline sonified): 100 % of control | T/C [1]: 100 % of control | T/C (dose: 100.0 mg/kg/injection, schedule: Q01DX009 (ip), vehicle: saline with Tween-80): 100 % of control | T/C (dose: 200.0 mg/kg/injection, schedule: Q01DX009 (ip), vehicle: saline with Tween-80): 100 % of control | T/C (dose: 400.0 mg/kg/injection, schedule: Q01DX009 (ip), vehicle: saline with Tween-80): 95 % of control | T/C (dose: 800.0 mg/kg/injection, schedule: Q01DX009 (ip), vehicle: saline with Tween-80): 109 % of control

CC1CC2=C(C1)C(C1(C)C(=O)CC3C(C1=O)C3(C)C)C(C)C2=O (stereo not drawn)
T/C (dose: 12.5 mg/kg/injection, schedule: Q01DX001 (ip), vehicle: Klucel (hydroxypropylcellulose) (HPC)): 100 % of control | T/C (dose: 25.0 mg/kg/injection, schedule: Q01DX001 (ip), vehicle: Klucel (hydroxypropylcellulose) (HPC)): 96 % of control | T/C (dose: 50.0 mg/kg/injection, schedule: Q01DX001 (ip), vehicle: Klucel (hydroxypropylcellulose) (HPC)): 102 % of control | T/C [5]: 96 % of control

N=C(N)SCCN1C(=O)NC(c2ccccc2)(c2ccccc2)C1=O
T/C (dose: 25.0 mg/kg/injection, schedule: Q04DX003 (ip), vehicle: Klucel (hydroxypropylcellulose) (HPC)): 114 % of control | T/C (dose: 50.0 mg/kg/injection, schedule: Q04DX003 (ip), vehicle: Klucel (hydroxypropylcellulose) (HPC)): 114 % of control | T/C (dose: 100.0 mg/kg/injection, schedule: Q04DX003 (ip), vehicle: Klucel (hydroxypropylcellulose) (HPC)): 96 % of control | T/C (dose: 200.0 mg/kg/injection, schedule: Q04DX003 (ip), vehicle: Klucel (hydroxypropylcellulose) (HPC)): 114 % of control

CCCN1C(=O)Cc2ccccc21
T/C [5]: 95 % of control | T/C (dose: 200.0 mg/kg/injection, schedule: Q01DX001 (ip), vehicle: Klucel (hydroxypropylcellulose) (HPC)): 97 % of control | T/C (dose: 400.0 mg/kg/injection, schedule: Q01DX001 (ip), vehicle: Klucel (hydroxypropylcellulose) (HPC)): 100 % of control

O=C(Cc1nc2ccc(Cl)cc2[nH]c1=O)c1ccccc1
T/C (dose: 60.0 mg/kg/injection, schedule: Q01DX005 (ip), vehicle: saline with Tween-80): 112 % of control | T/C (dose: 120.0 mg/kg/injection, schedule: Q01DX005 (ip), vehicle: saline with Tween-80): 108 % of control | T/C (dose: 240.0 mg/kg/injection, schedule: Q01DX005 (ip), vehicle: saline with Tween-80): 107 % of control

C/C(=C1/N=C(c2ccccc2)OC1=O)c1cccs1
T/C (dose: 50.0 mg/kg/injection, schedule: Q01DX005 (ip), vehicle: Klucel (hydroxypropylcellulose) (HPC)): 106 % of control | T/C (dose: 100.0 mg/kg/injection, schedule: Q01DX005 (ip), vehicle: Klucel (hydroxypropylcellulose) (HPC)): 100 % of control | T/C (dose: 200.0 mg/kg/injection, schedule: Q01DX005 (ip), vehicle: Klucel (hydroxypropylcellulose) (HPC)): 96 % of control

COc1ccc(CCNCC(O)CO/N=C(\C)c2ccc(N(C)C)cc2)cc1OC (stereo not drawn)
T/C (dose: 60.0 mg/kg/injection, schedule: Q01DX005 (ip), vehicle: Klucel (hydroxypropylcellulose) (HPC)): 104 % of control | T/C (dose: 120.0 mg/kg/injection, schedule: Q01DX005 (ip), vehicle: Klucel (hydroxypropylcellulose) (HPC)): 101 % of control | T/C (dose: 240.0 mg/kg/injection, schedule: Q01DX005 (ip), vehicle: Klucel (hydroxypropylcellulose) (HPC)): 97 % of control
